Source: paper PMC3821218 (Structure (London, England : 1993), 2013)
Marks after values point to notes of the source that are not given here.

Columns and labels:
RR468 [1] = biological target: T1, RR468 (Thermotoga maritima, UniProt Q9WYT9, V13P/L14I/I17M/N21V); settings: free RR468*; phosphomimetic; NaF/BeSO4/MgCl2, pH 4.6
RR468 [2] = biological target: T1, RR468; assay: autophosphorylation from […]acetyl phosphate; assay type: biochemical; settings: labelled compound; 5 mM MgCl2, pH 8.0, room temperature, 1 hour
crystal structure = biological target: the molecule itself; assay: crystal structure

Molecule: [F][Be-]([F])[F] [BeF3^−]
- X-ray crystal structure, 1.80 Å (RR468 [1]): the free forms of HK853* (HKf*) bound to ADP and RR468* (RRf*) bound to BeF3^−

Molecule: CC(=O)OP(=O)(O)O [acetyl-phosphate]
- autophosphorylation from [32P]acetyl phosphate (RR468 [2]): RR468* autophosphorylates more poorly than RR468 using this method

B1: HK853, wild type, cytoplasmic portion (enzyme, Thermotoga maritima)
chain: VENVTESKELERLKRIDRMKTEFIANISHELRTPLTAIKAYAETIYNSLGELDLSTLKEFLEVIIDQSNHLENLLNELLDFSRLERKSLQINREKVDLCDLVESAVNAIKEFASSHNVNVLFESNVPCPVEAYIDPTRIRQVLLNLLNNGVKYSKKDAPDKYVKVILDEKDGGVLIIVEDNGIGIPDHAKDRIFEQFYRVDSSLTYEVPGTGLGLAITKEIVELHGGRIWVESEVGKGSRFFVWIPKDRAGEDNRQDN
- stoichiometry N (crystal structure): 2
